In one experiment the target is Beta-secretase 1 (Homo sapiens, UniProt P56817). Description: Inhibition of BACE1-mediated cleavage of amyloid precursor protein after 16 hrs by spectrophotometry.
Experiment [1] is described as follows: Inhibition of chymotrypsin in absence of Triton X-100.
Experiment [2] in a line: Inhibition of chymotrypsin in presence of 0.01% Triton X-100.

pIC50: −log10 of the molar value. The source made the active and inactive calls. The rule behind the calls is not given here.

Beta-secretase 1, sequence (P56817 whole entry): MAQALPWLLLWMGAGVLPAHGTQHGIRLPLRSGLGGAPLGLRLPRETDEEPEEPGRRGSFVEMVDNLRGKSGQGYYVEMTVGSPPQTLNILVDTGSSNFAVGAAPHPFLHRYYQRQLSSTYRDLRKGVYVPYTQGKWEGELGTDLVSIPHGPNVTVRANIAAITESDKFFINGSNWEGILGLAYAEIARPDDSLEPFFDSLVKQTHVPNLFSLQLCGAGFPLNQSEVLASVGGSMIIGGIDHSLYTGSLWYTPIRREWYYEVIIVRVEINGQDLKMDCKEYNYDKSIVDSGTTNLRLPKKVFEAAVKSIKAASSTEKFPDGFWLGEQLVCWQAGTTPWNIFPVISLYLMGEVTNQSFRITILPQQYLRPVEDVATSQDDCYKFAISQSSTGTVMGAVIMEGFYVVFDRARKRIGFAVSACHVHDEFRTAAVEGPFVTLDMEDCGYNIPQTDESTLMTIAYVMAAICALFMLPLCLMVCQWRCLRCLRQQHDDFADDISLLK

With `C=C(C)C(/C=C\[C@@H](C)[C@H]1CC[C@H]2[C@@H]3C[C@H](O)[C@H]4C[C@H](O)[C@@H](O)C[C@]4(C)[C@H]3CC[C@]12C)C(C)C` (stereo partly drawn), the inhibition entry on Beta-secretase 1 was “inactive”.

Consider `CC(C)C(/C=C/[C@@H](C)[C@H]1CC[C@H]2[C@@H]3CC=C4C[C@@H](O)CC[C@]4(C)[C@H]3CC[C@]12C)C(C)C`, for which the inhibition result at Beta-secretase 1 is “inactive”.

As to `CC(C)C(/C=C/[C@@H](C)[C@H]1CC[C@H]2[C@@H]3C[C@H](O)[C@H]4C[C@H](O)[C@@H](O)C[C@]4(C)[C@H]3CC[C@]12C)C(C)C`, at Beta-secretase 1, the inhibition result was “inactive”.

In the case of `CC(C)C(/C=C\[C@@H](C)[C@H]1CC[C@H]2[C@@H]3C[C@H](O)[C@H]4C[C@H](O)[C@@H](O)C[C@]4(C)[C@H]3CC[C@]12C)C(C)C`, the inhibition result at Beta-secretase 1 was “inactive”.

Regarding `CC(C)C(/C=C\[C@@H](C)[C@H]1CC[C@H]2[C@@H]3C[C@H](OS(=O)(=O)O)[C@H]4C[C@H](OS(=O)(=O)O)[C@@H](OS(=O)(=O)O)C[C@]4(C)[C@H]3CC[C@]12C)C(C)C` [TOPSENTINOL K TRISULFATE], the pIC50 on Beta-secretase 1 was 5.92; in experiment [1] it was 5.57; in experiment [2], 4.46. Moreover, at Beta-secretase 1, the inhibition result is “Dose-dependent effect”.

These data come from ChEMBL document CHEMBL1221403, “Topsentinols, 24-isopropyl steroids from the marine sponge Topsentia sp” (J Nat Prod, 2010).
